Data reported in patent publication US20250248402A1, “HERBICIDAL COMPOSITIONS AND METHODS FOR CONTROLLING WEEDS” (UPL Mauritius Limited, priority 2024, published 2025).

System: common waterhemp, Sensitive "WUS" Population
Test: Greenhouse dose-response, effective dose on atrazine-sensitive waterhemp
Format: in vivo, Amaranthus tuberculatus
Conditions: 13 days after treatment, visual scale 0-100

Question: With CCNc1nc(Cl)nc(NC(C)C)n1 [Atrazine (480 g/L FL), Atrazine] as the compound, how does the “ED 20 Estimate” value read?
Answer: Its value is 11.127 g ai/ha.

Question: What about the “ED 80 Estimate” value of the same compound?
Answer: Its value is 39.353 g ai/ha.
